Test results from patent US12269804B2, “Quinoxalinone compounds, compositions, methods, and kits for increasing genome editing efficiency” (VERTEX PHARMACEUTICALS INCORPORATED, priority 2018, dated 2025).
Like-named read-outs stand apart in the source and are kept apart here.

Experiments:
Assay type in all cases: cell-based, human
[1] = tested on: CD34+ cells, AAVS1; assay: HDR gene editing in CD34+ cells at AAVS1 (Summary Table); details: for EC50: Homo sapiens
Description: (§1) Primary human mobilized peripheral blood (mPB) CD34^+ hematopoietic stem and progenitor cells (HSPCs) were purchased from Hemacare or AllCells. Cells were thawed, washed and resuspended in complete medium comprised of serum free medium CellGro SCGM (CellGenix) and supplemented with cytokine mix (300 ng/mL SCF, 300 ng/mL Flt3L, 100 ng/mL TPO, 60 ng/ml IL-3) at a density of 1-3×10^5 cells per mL and incubated at 37° C./5% CO2 incubator for 48 hours prior to electroporation.
(§2) CD34+ cells were electroporated two days post thaw. The following conditions were used for electroporation: 2.0×E6 cells, 15 μg Cas9 protein (Feldan), 15 μg sgRNA, 1 μM of ssODN in 100 μl of P3 electroporation buffer using program CA-137. Electroporated cells were transferred by equally dividing them into eight wells of a 24-well plate, each well containing various concentrations of DNA-PK inhibitors. Cells were incubated at 37° C. in a 5% CO2 incubator for two days and evaluated for cell viability and gene editing.
(§3) Genomic DNA was isolated by incubating cells with 50 μl DNA Quickextract solution (Epicentre) per well of 96 well plate for 30 min at 37° C. Cellular extract was mixed and transferred into a PCR plate and then incubated for 6 min at 65° C. and 2 min at 98° C. PCR reactions were carried out with 1 μl of Genomic DNA containing solution by using AccuPrime™ Pfx DNA Polymerase (Thermofisher, 12344024). PCR conditions were 4 min at 94° C. (1×), followed by 15 s at 94° C., 15 s at 60° C. and 1 min at […] (40×). The PCR products were purified and then Sanger sequenced by GENEWIZ. The following primer pairs spanning the target site were used for PCR (FW, forward; RV, reverse). Primers used by Sanger Sequencing are indicated by an asterisk (*): […]
(§4) Each sequence chromatogram was analyzed using TIDE (Tracking of Indels by Decomposition) software (http://tide.nki.nl) (See also Brinkman et al., Nucleic Acids Research, Volume 42, Issue 22, 16 Dec. 2014, Pages e168). Mock-electroporated samples were used as the reference sequence, and parameters were set to an indel size of 30 nt, and the decomposition window was set to cover the largest possible window with high-quality traces. Total indel (insertion and deletions) rates were obtained directly from TIDE plots. HDR rates were the percentage of events with an insertion of 10 Nucleotides. NHEJ Rates were calculated as Total Indel rate—HDR rate. GraphPad Prism 7 software was used to make Graphs and to calculate the all Statistical information.

[2] = tested on: Bronchial Epithelial Cells (BECs), NAV1.7; assay: Gene editing rates (TIDE assay) in BECs electroporated with spCAS9 mRNA, NAV1.7 sgRNA and NAV1.7 Non-PAM ssODN
Description: (§5) Bronchial Epithelial Cells (BECs) were derived from human donors diagnosed with Cystic Fibrosis with a CFTR dF508/dF508 genotype.
(§6) For BECs, the following conditions were used for electroporation: 1.8×E5 Cells, 250 ng of CAS9 mRNA, 500 ng of sgRNA and 0.66 μM of ssODN in 20 μl of P4 Electroporation buffer by using program CM-138. The electroporated cells were transferred to a 96 well plate containing 100 μl of BEC culture media supplemented with DNA-PK inhibitors or left untreated. Cells were incubated at 37° C. in a 5% CO2 incubator.
as §3, §4
FIG. 1 illustrates the design of the gene editing assays used in the examples below. To investigate the effect of DNA-PK inhibitors on HDR gene editing rates, BECs were electroporated with spCAS9 mRNA, NAV1.7 sgRNA and NAV1.7 Non-PAM ssODN and then incubated with different concentrations Compound 1 or left untreated (Control). Gene editing rates were determined by using TIDE assay 72 hs after electroporation. Gene editing rates were expressed in percentages and classified as HDR and NHEJ. Cell survival rates are shown in percentages where control cells were set as 100%.

[3] = tested on: mPB CD34+ cells, NAV1.7; assay: Gene editing rates (TIDE assay) in mPB CD34+ cells electroporated with RNP (spCAS9 protein+NAV1.7 sgRNA) and NAV1.7 Non-PAM ssODN; details: for EC50: Homo sapiens
Description: as §1, §2, §3, §4
To investigate the effect of DNA-PK inhibitors on HDR gene editing rates, mPB CD34+ cells were electroporated with RNP (spCAS9 protein+NAV1.7 sgRNA) and NAV1.7 Non-PAM ssODN. Cells were then incubated with various concentrations of Compound 1. Gene editing rates were determined by using TIDE assay 48 h after electroporation. Gene editing rates were expressed in percentages and classified as HDR and NHEJ as shown in FIG. 3A (Donor B) and FIG. 3B (Donor C. Cell survival rates are shown in percentages where control cells were set as 100%.

[4] = tested on: Bronchial Epithelial Cells (BECs), AAVS1; assay: HDR rates in BECs, gene editing components delivered by lipid-mediated transfection (AAVS1); details: AAVS1, lipid-based transfection, 72 hs after transfection
Description: as §5
One day prior to transfection, BECs were seeded in a 96-well plate at a cell density of 1×E4 cells per well in BECs culture media. First, 0.15 μl of MessengerMax (ThermoFisher, LMRNA 003) was diluted into 5 μl of Opti-MEM and incubated for 10 min at room temperature. Meanwhile, 80 ng of Cas9 mRNA (Trilink, L-7206), 20 ng of sgRNA (Synthego) and 1 picomol of ssODN were added to 5 μl of Opti-MEM and then mixed with MessengerMAx solution. The mixture was incubated for 5 min prior to addition to the cells. The entire solution was added to the cells in a well of 96-well plate with 100 μl of culture media with or without DNA-PK inhibitors. Cells were incubated at 37° C. for in a 5% CO2 incubator. […]
(§7) Each sequence chromatogram was analyzed using TIDE (Tracking of Indels by Decomposition) software (http://tide.nki.nl) (See also Brinkman et al., Nucleic Acids Research, Volume 42, Issue 22, 16 Dec. 2014, Pages e168). […] NHEJ Rates were calculated as Total Indel rate—HDR rate. […]
To investigate the effects of lipid-mediated transfection, BEC were transfected with spCAS9 mRNA, AAVS1 sgRNA and AAVS1 PAM ssODN and then incubated with different concentration of Compound 1 or left untreated (Control). Gene editing rates were determined by using TIDE assay 72 hs after transfection.

[5] = tested on: Induced Pluripotent Stem Cells (iPSCs), AAVS1; assay: Gene editing rates (TIDE assay) in iPSCs electroporated with spCAS9 mRNA, AAVS1 sgRNA and AAVS1 PAM ssODN
Description: Induced Pluripotent Stem Cells (iPSCs) were derived from Human dermal fibroblasts after viral transduction with Yamanaka's reprogramming factors, Oct4, Sox2, KLF4 and c-Myc. Derived iPSCs were able to differentiate into 3 germ layers and contained a normal karyotype with 23 pairs of Chromosomes.
For iPSCs the following conditions were used: 2.0×E5 Cells, 250 ng of CAS9 mRNA, 500 ng of sgRNA and 0.66 μM of ssODN in 20 μl of P3 Electroporation buffer by using program CA-137. The electroporated cells were transferred to a 96 well plate containing 100 μl of mTEsR1 media (Stem Cell Technologies) supplemented with 10 μM ROCK Inhibitor Y-27632 (Stem Cell Technologies) with or without DNA-PK inhibitors and then incubated at 37° C. in a 5% CO2 incubator.
as §3, §4
To investigate the effect of DNA-PK inhibitors on HDR gene editing rates, iPSCs were electroporated with spCAS9 mRNA, AAVS1 sgRNA and AAVS1 PAM ssODN and then incubated with different concentrations of Compound 1 or left untreated (Control). Gene editing rates were determined by using TIDE assay 72 hs after electroporation. Gene editing rates were expressed in percentages and classified as HDR and NHEJ. Cell survival rates are shown in percentages where control cells were set as 100%.

[6] = tested on: Bronchial Epithelial Cells (BECs), AAVS1; assay: Gene editing rates (TIDE assay) in BECs electroporated with spCAS9 mRNA, AAVS1 sgRNA and AAVS1 PAM ssODN
Description: as §5, §6
as §3, with “reverse).” for “reverse). Primers used by Sanger Sequencing are indicated by an asterisk (*):”
as §7
To investigate the gene editing kinetics at EC max, BECs were electroporated with spCAS9 mRNA, AAVS1 sgRNA and AAVS1 PAM ssODN and then incubated at different times with 10 μM Compound 1 or left untreated (Control). Gene editing rates were determined by using TIDE assay and expressed in percentages of HDR and NHEJ. […]
BECs were electroporated with spCAS9 mRNA, AAVS1 sgRNA and AAVS1 PAM ssODN and then incubated at different times with 0.7 μM Compound 1 or left untreated (Control). Gene editing rates were determined by using TIDE assay and expressed in percentages of HDR and NHEJ. […]

## Cn1c(=O)cnc2cc(N3CCOCC3)cc(O[C@H]3CC[C@@H](Nc4ncccn4)CC3)c21 [Compound 1, 1-methyl-6-morpholino-8-(((1,4-cis)-4-(pyrimidin-2-ylamino)cyclohexyl)oxy)quinoxalin-2(1H)-one]
[1]; Donor A
  HDR Max %: 76%
  EC50: 120 nM
[1]; Donor C
  HDR Max %: 88%
  EC50: 180 nM
[2]; Homo sapiens, Epithelial cell, NAV1.7, TIDE assay 72 hs after electroporation, read-out: HDR EC50
  EC50: 445 nM
[2]; Homo sapiens, Epithelial cell, NAV1.7, TIDE assay 72 hs after electroporation, read-out: NHEJ IC50
  IC50: 445 nM
[2]; Homo sapiens, Epithelial cell, NaV1.7, read-out: HDR EC50
  EC50: 720 nM
[2]; NAV1.7, TIDE assay 72 hs after electroporation
  HDR TOP %: 69.37%
[2]; NaV1.7
  HDR Max %: 69%
[3]; CD34+, Donor A, NaV1.7
  HDR Max %: 82%
[3]; CD34+, Donor B, NaV1.7
  HDR Max %: 86%
[3]; CD34+, Donor C, NaV1.7
  HDR Max %: 67%
[3]; 48 h, CD34+ cells, Donor B, NAV1.7, 48 h after electroporation, read-out: EC50 of HDR
  EC50: 290 nM
[3]; 48 h, CD34+ cells, Donor B, NAV1.7, 48 h after electroporation, read-out: EC50 of Indel formation
  EC50: 350 nM
[3]; CD34+, Donor A, NaV1.7, read-out: HDR EC50
  EC50: 390 nM
[3]; CD34+, Donor B, NaV1.7, read-out: HDR EC50
  EC50: 290 nM
[3]; CD34+, Donor C, NaV1.7, read-out: HDR EC50
  EC50: 110 nM
[4]
  HDR efficiency rates: increasing HDR efficiency rates with increasing concentrations
[5]; AAVS1
  HDR Max %: 24%
[5]; AAVS1, TIDE assay 72 hs after electroporation
  HDR TOP %: 24.41%
[5]; Homo sapiens, iPSC, AAVS1, TIDE assay 72 hs after electroporation, read-out: HDR EC50
  EC50: 325 nM
[5]; Homo sapiens, iPSC, AAVS1, TIDE assay 72 hs after electroporation, read-out: NHEJ IC50
  IC50: 474 nM
[5]; Homo sapiens, iPSC, AAVS1, read-out: HDR EC50
  EC50: 330 nM
[6]
  HDR Max %: 66%
  Maximum Enhance Concentration (ECmax): 10 µM
[6]; Homo sapiens, Epithelial cell, read-out: Enhance Concentration 50 (EC50)
  EC50: 700 nM
